Test results: article PMC10180076, “Novel Biologically Active N-Substituted Benzimidazole Derived Schiff Bases: Design, Synthesis, and Biological Evaluation” (Molecules, 2023)

Key:
LN-229, glioblastoma = test: Proliferation assay (MTS, 72 h), LN-229; format: cell-based, human; conditions: Homo sapiens, LN-229
Source text: (§1) Human cancer cells used in this manuscript, namely Capan-1, HCT-116, NCI-H460, LN-229, HL-60, K-562, and Z-138, were acquired from the American Type Culture Collection (ATCC, Manassas, VA, USA), while the DND-41 cell line was purchased from the Deutsche Sammlung von Mikroorganismen und Zellkulturen (DSMZ Leibniz-Institut, Braunschweig, Germany). Culture media were purchased from Gibco Life Technologies, Merelbeke, Belgium, and supplemented with 10% fetal bovine serum (HyClone, Cytiva, Marlborough, MA, USA). Vincristine and docetaxel, which were used as the reference inhibitors, were purchased from Selleckchem (Munich, Germany). Stock solutions were prepared in DMSO.
(§2) Adherent cell lines LN-229, HCT-116, and NCI-H460 and Capan-1 cells were seeded at a density between 500 and 1500 cells per well, in 384-well tissue culture plates (Greiner, Kremsmünster, Austria). After overnight incubation, the cells were treated with seven different concentrations of the test compounds, ranging from 100 to 0.006 µM.
(§3) Suspension cell lines HL-60, K-562, Z-138, and DND-41 were seeded at densities ranging from 2500 to 5500 cells per well in 384-well culture plates containing the test compounds at the same concentration points. The cells were incubated for 72 h with the compounds and were then analyzed using the CellTiter 96® AQueous One Solution Cell Proliferation Assay (MTS) reagent (Promega, Madison, WI, USA) according to the manufacturer’s instructions. […] The compounds were tested in two independent experiments.

[1] = tested on: Capan-1, pancreatic adenocarcinoma; test: Proliferation assay (MTS, 72 h), Capan-1; format: cell-based, human; conditions: Homo sapiens, CAPAN-1
Source text: as §1, §2, §3

[2] = tested on: HCT-116, colorectal carcinoma; test: Proliferation assay (MTS, 72 h), HCT-116; format: cell-based, human; conditions: Homo sapiens, HCT-116
Source text: as §1, §2, §3

NCI-H460, lung carcinoma = test: Proliferation assay (MTS, 72 h), NCI-H460; format: cell-based, human; conditions: Homo sapiens, NCI-H460
Source text: as §1, §2, §3

[3] = tested on: DND-41, acute lymphoblastic leukemia; test: Proliferation assay (MTS, 72 h), DND-41; format: cell-based, human; conditions: Homo sapiens, DND41
Source text: as §1, §2, §3

[4] = tested on: HL-60, acute myeloid leukemia; test: Proliferation assay (MTS, 72 h), HL-60; format: cell-based, human; conditions: Homo sapiens, HL-60
Source text: as §1, §2, §3

[5] = tested on: K-562, chronic myeloid leukemia; test: Proliferation assay (MTS, 72 h), K-562; format: cell-based, human; conditions: Homo sapiens, K562
Source text: as §1, §2, §3

[6] = tested on: Z-138, non-Hodgkin lymphoma; test: Proliferation assay (MTS, 72 h), Z-138; format: cell-based, human; conditions: Homo sapiens, Z-138
Source text: as §1, §2, §3

[7] = tested on: human coronavirus HCoV-229E; test: organism not typed; format: cell-based; conditions: HEL 299 cells, 100 CCID50, MTS; read-out: Antiviral Activity (EC50/μM) HCoV 229E HEL 299
[8] = tested on: human coronavirus HCoV-OC43; test: microbe, parasite or virus in culture; format: cell-based; conditions: Betacoronavirus 1, OC43; HEL 299 cells, 100 CCID50, MTS; read-out: Antiviral Activity (EC50/μM) HCoV OC43 HEL 299
[9] = tested on: human coronavirus HCoV-NL63; test: Antiviral CPE reduction assay, HCoV-NL63 in Huh-7; format: cell-based; conditions: Huh-7 cells, 100 CCID50, MTS
[10] = tested on: respiratory syncytial virus A (Long); test: Antiviral CPE reduction assay, RSV A in HEL 299; format: cell-based; conditions: human respiratory syncytial virus; HEL 299 cells, 100 CCID50, MTS
[11] = tested on: yellow fever virus (YFV 17D); test: microbe, parasite or virus in culture; format: cell-based; conditions: Huh-7, read-out: Antiviral Activity (EC50/μM) YFV 17D Huh-7
Zika virus (Mr776) = test: Antiviral CPE reduction assay, Zika virus in Huh-7; format: cell-based; conditions: Huh-7 cells, 100 CCID50, MTS
sindbis virus = test: Antiviral CPE reduction assay, Sindbis virus in Huh-7; format: cell-based; conditions: Huh-7 cells, 100 CCID50, MTS
in vitro [12] = conditions: human
in vitro [13] = conditions: human; remark: listed apart in the source
[14] = tested on: influenza A/H1N1 (A/Ned/378/05); test: Antiviral CPE reduction assay, influenza A/H1N1 in MDCK; format: cell-based; conditions: Influenza A virus, MDCK cells, 100 CCID50, MTS
[15] = tested on: influenza A/H3N2 (A/HK/7/87); test: Antiviral CPE reduction assay, influenza A/H3N2 in MDCK; format: cell-based; conditions: Influenza A virus, MDCK cells, 100 CCID50, MTS
[16] = tested on: influenza B (B/Ned/537/05); test: Antiviral CPE reduction assay, influenza B in MDCK; format: cell-based; conditions: Influenza B virus; MDCK cells, 100 CCID50, MTS
in vitro [17] = conditions: dog

CN(C)c1ccc(/C=N/c2nc3ccc(C#N)cc3n2-c2ccccc2)cc1 [Compound 39, (E)-2-((4-(Dimethylamino)benzylidene)amino)-1-phenyl-1H-benzo[d]imidazole-6-carbonitrile]
IC50 (LN-229, glioblastoma): > 100 µM
IC50 [1]: > 100 µM
IC50 [2]: > 100 µM
IC50 (NCI-H460, lung carcinoma): > 100 µM
IC50 [3]: > 100 µM
IC50 [4]: > 100 µM
IC50 [5]: > 100 µM
IC50 [6]: > 100 µM
melting point: 247 to 251 °C

CCCCCCn1c(/N=C/c2ccc(N(C)C)cc2)nc2ccc(C#N)cc21 [Compound 43, (E)-2-((4-(Dimethylamino)benzylidene)amino)-1-hexyl-1H-benzo[d]imidazole-6-carbonitrile]
IC50 (LN-229, glioblastoma): > 100 µM
IC50 [1]: > 100 µM
IC50 [2]: > 100 µM
IC50 (NCI-H460, lung carcinoma): 91.6 µM
IC50 [3]: > 100 µM
IC50 [4]: 33.5 µM
IC50 [5]: > 100 µM
IC50 [6]: > 100 µM
melting point: 165 to 170 °C

CCCCCCn1c(/N=C/c2ccc(N(CC)CC)cc2O)nc2ccccc21 [Compound 44, (E)-5-(Diethylamino)-2-(((1-hexyl-1H-benzo[d]imidazol-2-yl)imino)methyl)phenol]
IC50 (LN-229, glioblastoma): > 100 µM
IC50 [1]: > 100 µM
IC50 [2]: > 100 µM
IC50 (NCI-H460, lung carcinoma): > 100 µM
IC50 [3]: > 100 µM
IC50 [4]: 83.9 µM
IC50 [5]: > 100 µM
IC50 [6]: > 100 µM
melting point: 201 to 204 °C

CCCCCCn1c(/N=C/c2ccc(N(CC)CC)cc2O)nc2ccc(C#N)cc21 [Compound 45, (E)-2-((4-(Diethylamino)-2-hydroxybenzylidene)amino)-1-hexyl-1H-benzo[d]imidazole-6-carbonitrile]
IC50 (LN-229, glioblastoma): > 100 µM
IC50 [1]: > 100 µM
IC50 [2]: > 100 µM
IC50 (NCI-H460, lung carcinoma): > 100 µM
IC50 [3]: > 100 µM
IC50 [4]: > 100 µM
IC50 [5]: > 100 µM
IC50 [6]: > 100 µM

COc1cc([C@@H]2c3cc4c(cc3[C@@H](O[C@@H]3O[C@@H]5CO[C@@H](C)O[C@H]5[C@H](O)[C@H]3O)[C@H]3COC(=O)[C@H]23)OCO4)cc(OC)c1O [ETP, etoposide, reference compound]
IC50 (LN-229, glioblastoma): 2.4 µM
IC50 [1]: 0.43 µM
IC50 [2]: 1.45 µM
IC50 (NCI-H460, lung carcinoma): 3.65 µM
IC50 [3]: 2.8 µM
IC50 [4]: 0.42 µM
IC50 [5]: 1.77 µM
IC50 [6]: 0.85 µM

COC(=O)Nc1nc2ccc(C(=O)c3cccs3)cc2[nH]1 [NZO, nocodazole, reference compound]
IC50 (LN-229, glioblastoma): 0.29 µM
IC50 [1]: 0.1 µM
IC50 [2]: 0.13 µM
IC50 (NCI-H460, lung carcinoma): 0.25 µM
IC50 [3]: 0.47 µM
IC50 [4]: 0.1 µM
IC50 [5]: 0.07 µM
IC50 [6]: 0.31 µM

CCC(CC)COC(=O)[C@H](C)N[P@](=O)(OC[C@H]1O[C@@](C#N)(c2ccc3c(N)ncnn23)[C@H](O)[C@@H]1O)Oc1ccccc1 [Remdesivir, remdesivir, reference compound]
EC50 [7]: 0.06 µM
EC50 [8]: 0.06 µM
EC50 [9]: 0.03 µM
EC50 [10]: 0.03 µM
EC50 [11]: 6.2 µM
EC50 (Zika virus (Mr776)): 0.7 µM
EC50 (sindbis virus): > 10 µM
CC50 (in vitro [12]): > 10 µM
CC50 (in vitro [13]): > 10 µM

NC(=O)c1ncn([C@@H]2O[C@H](CO)[C@@H](O)[C@H]2O)n1 [Ribavirin, ribavirin, reference compound]
EC50 [7]: 82.6 µM
EC50 [9]: > 250 µM
EC50 [14]: 10.5 µM
EC50 [15]: 4 µM
EC50 [16]: 2.8 µM
EC50 [10]: 10.8 µM
EC50 [11]: > 250 µM
EC50 (Zika virus (Mr776)): > 250 µM
EC50 (sindbis virus): 148 µM
CC50 (in vitro [17]): 67 µM

CC(N)C12CC3CC(CC(C3)C1)C2 (stereo not drawn) [Rimantadine, rimantadine, reference compound]
EC50 [14]: 5 µM
EC50 [15]: 0.05 µM
EC50 [16]: > 100 µM
CC50 (in vitro [17]): > 100 µM

CC(=O)N[C@H]1[C@H]([C@H](O)[C@H](O)CO)OC(C(=O)O)=C[C@@H]1N=C(N)N [Zanamivir, zanamivir, reference compound]
EC50 [14]: 0.1 µM
EC50 [15]: 16.8 µM
EC50 [16]: 0.05 µM
CC50 (in vitro [17]): > 100 µM
